Source: patent US20260234149A1, “FUSED BICYCLIC COMPOUND” (CHIA TAI TIANQING PHARMACEUTICAL GROUP CO., LTD., priority 2022, published 2026)

Experiments:
MDA-MB-436 cells = test: Assay on inhibitory activity for MDA-MB-436 cell proliferation (CCK-8); assay type: cell-based; details: 168 h incubation, CCK-8, absorbance at 450 nm
Description: 1.1 Assay on inhibitory activity for MDA-MB-436 cell proliferation MDA-MB-436 cells in a good growth state were collected into a centrifuge tube, adjusted to a cell density of 2×10^4 cells/mL using a complete medium (DMEM high glucose+[…]+1× insulin-transferrin-selenium (JTS-G)+16 μg/mL reduced glutathione), and seeded in a 96-well plate (100 μL/well), and the plate was incubated overnight in a cell incubator Compounds were added using a pipettor, such that the final concentrations of the compounds were 400 nM-0.02 nM. The wells were set in duplicate, and a control well was set. After 168 h of incubation in the cell incubator, the assay reagent CCK-8 (manufacturer: Dojindo Laboratories, Beijing; 10 μL/well) was added. After 1.5 h of incubation in the cell incubator, the absorbance was measured at 450 nm on a PerkinElmer Envision microplate reader.

PARP1 [1] = target: T1, PARP1 (Homo sapiens, UniProt P09874); test: Assay on PARP1 protein activity (chemiluminescence assay kit); assay type: biochemical; details: PARP1 enzyme, 1 h room temperature
T1 construct: purchased BPS 80551

PARP2 = target: T2, PARP2 (Homo sapiens, UniProt Q9UGN5); test: PARP2-Tracer activity assay (FP method); assay type: binding
T2 construct: purchased BPS 80502
Description: (§1) The enzyme inhibition activity of the compounds against PARP1/2-Tracer was tested using the FP method. First, 100 nL of inhibitors with a final concentration of 1% DMSO were transferred to a 384-well reaction plate (Corning 4514) using Echo655. Then, 5 μL of PARP1/2 (BPS, Cat #80501/80502) enzyme solution was added to each well, followed by centrifugation at 1000 RPM for 1 min at room temperature, and the reaction was allowed to proceed for 10 min. Subsequently, 5 μL of Tracer (ICE, Cat #001315-009) solution was added to each well, followed by centrifugation at 1000 RPM for 1 min at room temperature, and the reaction was allowed to proceed for 60 min. PARP1/2 and Tracer were prepared in a buffer containing 50 mM Tris (pH 8.0), 10 mM MgCl2, 150 mM NaCl, and 0.001% Triox-100, with final concentrations of 5/10 nM and 2.5 nM, respectively. Finally, the FP signal was read using BMG (PHERAstar FSX), and the IC50 values and nonlinear regression curve fitting were obtained using GraphPad Prism software.

PARP1 [2] = target: T1, PARP1; test: PARP1-Tracer activity assay (FP method); assay type: binding
Description: as §1

T1 sequence (P09874 whole entry): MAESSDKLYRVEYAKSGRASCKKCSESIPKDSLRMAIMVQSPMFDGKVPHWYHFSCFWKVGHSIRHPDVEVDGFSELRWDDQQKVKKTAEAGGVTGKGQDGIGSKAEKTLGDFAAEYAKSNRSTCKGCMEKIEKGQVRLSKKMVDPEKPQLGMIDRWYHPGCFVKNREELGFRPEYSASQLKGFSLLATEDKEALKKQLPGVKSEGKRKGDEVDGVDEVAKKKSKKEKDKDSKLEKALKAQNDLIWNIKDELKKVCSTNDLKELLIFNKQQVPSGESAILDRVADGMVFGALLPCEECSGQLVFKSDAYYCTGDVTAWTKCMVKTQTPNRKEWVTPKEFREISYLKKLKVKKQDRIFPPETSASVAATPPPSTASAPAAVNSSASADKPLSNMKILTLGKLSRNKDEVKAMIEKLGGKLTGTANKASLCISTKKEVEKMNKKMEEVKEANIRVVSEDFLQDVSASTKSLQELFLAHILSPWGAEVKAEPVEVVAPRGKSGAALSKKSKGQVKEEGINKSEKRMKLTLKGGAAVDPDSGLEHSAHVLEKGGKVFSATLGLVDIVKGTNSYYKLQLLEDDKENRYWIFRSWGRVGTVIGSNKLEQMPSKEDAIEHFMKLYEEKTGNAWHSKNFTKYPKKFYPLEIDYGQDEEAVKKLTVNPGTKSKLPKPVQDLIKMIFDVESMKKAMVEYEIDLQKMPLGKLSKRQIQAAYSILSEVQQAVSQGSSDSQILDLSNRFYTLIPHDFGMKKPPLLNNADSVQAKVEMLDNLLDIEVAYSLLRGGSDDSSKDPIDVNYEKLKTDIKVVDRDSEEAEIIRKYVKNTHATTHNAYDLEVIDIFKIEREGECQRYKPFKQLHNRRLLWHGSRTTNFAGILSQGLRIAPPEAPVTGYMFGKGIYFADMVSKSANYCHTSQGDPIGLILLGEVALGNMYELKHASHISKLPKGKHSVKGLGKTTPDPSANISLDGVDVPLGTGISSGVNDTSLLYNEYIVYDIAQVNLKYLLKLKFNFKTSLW
T2 sequence (Q9UGN5 whole entry): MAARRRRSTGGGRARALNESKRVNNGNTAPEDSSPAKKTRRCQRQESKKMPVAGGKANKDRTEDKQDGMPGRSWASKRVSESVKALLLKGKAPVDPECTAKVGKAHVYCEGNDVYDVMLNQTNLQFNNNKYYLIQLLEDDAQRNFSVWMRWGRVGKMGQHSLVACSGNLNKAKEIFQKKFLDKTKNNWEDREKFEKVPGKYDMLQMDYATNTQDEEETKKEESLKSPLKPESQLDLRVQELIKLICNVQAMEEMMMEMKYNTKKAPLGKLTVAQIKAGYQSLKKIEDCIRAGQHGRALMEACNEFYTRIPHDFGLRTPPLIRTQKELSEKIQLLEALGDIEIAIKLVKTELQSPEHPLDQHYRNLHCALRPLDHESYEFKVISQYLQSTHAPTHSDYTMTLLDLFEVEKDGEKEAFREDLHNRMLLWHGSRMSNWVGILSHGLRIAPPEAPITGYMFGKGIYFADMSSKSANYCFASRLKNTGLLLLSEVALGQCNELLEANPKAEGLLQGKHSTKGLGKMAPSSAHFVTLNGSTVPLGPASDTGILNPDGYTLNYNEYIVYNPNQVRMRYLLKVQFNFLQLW

SMILES	IC50 (MDA-MB-436 cells; Homo sapiens, MDA-MB-436) [nM]	further results
CNC(=O)n1cc2c(n1)CN(C1CN(Cc3ccc4cc(C(F)(F)F)c(=O)[nH]c4c3)[C@@H]1C)C2 (single isomer, unassigned) [Compound 35]		IC50 (MDA-MB-436 cells): ≤ 50 nM
CNC(=O)n1cc2c(n1)CN(C1CN(Cc3ccc4cc(C5CC5)c(=O)[nH]c4c3)[C@@H]1C)C2 (single isomer, unassigned) [Compound 40]		IC50 (MDA-MB-436 cells): ≤ 50 nM
CNC(=O)n1cc2c(n1)CN(C1CN(Cc3ccc4cc(C5CC5)c(=O)[nH]c4c3)C1)C2 [Compound 2]		IC50 (PARP1 [1]): ≤ 1 nM
CNC(=O)n1cc2c(n1)CN(C1CN(Cc3ccc4cc(C(F)(F)F)c(=O)[nH]c4c3)C1)C2 [Compound 24]		IC50 (PARP1 [1]): ≤ 1 nM; IC50 (PARP2): > 500 nM; IC50 (PARP1 [2]): 2.48 nM
CCc1cc2ccc(CN3C[C@@H](N4Cc5cn(C(=O)NC)nc5C4)[C@@H]3C)cc2[nH]c1=O [Compound 39]	≤ 50	
CNC(=O)n1cc2c(n1)CN([C@@H]1CN(Cc3ccc4cc(C5CC5)c(=O)[nH]c4c3)[C@H]1C)C2 [Compound 43]	≤ 50	
CCc1nc2ccc(CN3C[C@H](N4Cc5cn(C(=O)NC)nc5C4)[C@@H]3C)cc2[nH]c1=O [Compound 45]		IC50 (PARP1 [1]): ≤ 1 nM; IC50 (PARP2): > 500 nM; IC50 (PARP1 [2]): 2.52 nM
CCc1cc2ncc(CN3C[C@H](N4Cc5cn(C(=O)NC)nc5C4)[C@@H]3C)cc2[nH]c1=O [Compound 47]		IC50 (MDA-MB-436 cells): ≤ 50 nM

Continued, in another order:

IC50 (MDA-MB-436 cells; Homo sapiens, MDA-MB-436) [nM]	SMILES	further results
≤ 50	CNC(=O)n1cc2c(n1)CN(C1CN(Cc3ccc4cc(C(F)(F)F)c(=O)[nH]c4c3)[C@H]1C)C2 (single isomer, unassigned) [Compound 36]	IC50 (PARP1 [1]): ≤ 10 nM
≤ 50	CCc1cc2ccc(CN3CC(N4Cc5cn(C(=O)NC)nc5C4)C3)cc2[nH]c1=O [Compound 1]	
≤ 50	CCc1cc2ccc(CN3CC(N4Cc5cn(C(=O)NC6CC6)nc5C4)C3)cc2[nH]c1=O [Compound 4]	
≤ 50	CCc1cc2ncc(CN3CC(N4Cc5cn(C(=O)NC6CC6)nc5C4)C3)cc2[nH]c1=O [Compound 5]	
≤ 50	CCc1cc2ncc(CN3CC(N4Cc5nc(C(=O)NC)sc5C4)C3)cc2[nH]c1=O [Compound 7]	
≤ 50	CCc1cc2ccc(CN3CC(N4Cc5cn(C(=O)NC(C)C)nc5C4)C3)cc2[nH]c1=O [Compound 9]	
≤ 50	CCc1cc2ncc(CN3CC(N4Cc5cn(C(=O)NC)nc5C4)C3)cc2[nH]c1=O [Compound 10]	
≤ 50	O=C(NC1CC1)n1cc2c(n1)CN(C1CN(Cc3ccc4cc(C5CC5)c(=O)[nH]c4c3)C1)C2 [Compound 11]	
≤ 50	CCNC(=O)n1cc2c(n1)CN(C1CN(Cc3ccc4cc(CC)c(=O)[nH]c4c3)C1)C2 [Compound 13]	
≤ 50	[2H]C([2H])([2H])NC(=O)n1cc2c(n1)CN(C1CN(Cc3ccc4cc(CC)c(=O)[nH]c4c3)C1)C2 [Compound 14]	
≤ 50	CNC(=O)n1cc2c(n1)CN(C1CN(Cc3ccc4c5c(c(=O)[nH]c4c3)CCC5)C1)C2 [Compound 15]	
≤ 50	CCc1cc2c(F)cc(CN3CC(N4Cc5cn(C(=O)NC)nc5C4)C3)cc2[nH]c1=O [Compound 16]	
